ChEMBL document CHEMBL1201862, “PubChem BioAssay data set” (2004)
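Cells were grown in 96-well plates and exposed to each compound for 48 hours at five concentrations; endpoints were interpolated linearly between bracketing concentrations, or set to the highest concentration if not reached. GI50: concentration for 50% inhibition of growth.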 Calls of active or inactive are those of the source. Cut-off read from the data, not from the text of the source: active = GI50 up to about 1.1 µM and inactive = higher.

Key:
Assay in all cases: NCI tumour cell line growth inhibition, 48 h
[1] = tested on: SW-620
[2] = tested on: MDA-MB-435
[3] = tested on: OVCAR-5
[4] = tested on: MOLT-4
[5] = tested on: IGROV-1
[6] = tested on: SF-539
[7] = tested on: NCI-H226
[8] = tested on: HCT-15
[9] = tested on: SNB-75
[10] = tested on: PC-3
[11] = tested on: Malme-3M
[12] = tested on: SF-295
[13] = tested on: SK-MEL-2
[14] = tested on: OVCAR-8
[15] = tested on: SR
[16] = tested on: HL-60
[17] = tested on: UO-31
[18] = tested on: SN12C
[19] = tested on: DU-145

Structure (SMILES)	GI50 [1]	GI50 [2]	GI50 [3]	GI50 [4]	GI50 [5]	GI50 [6]	GI50 [7]	GI50 [8]	GI50 [9]	GI50 [10]	GI50 [11]	GI50 [12]	GI50 [13]	GI50 [14]	GI50 [15]	GI50 [16]	GI50 [17]	GI50 [18]	GI50 [19]
COc1ccccc1N=C(S)Nc1ccccn1	> 100 µM (inactive)	> 100 µM (inactive)	> 100 µM (inactive)	> 100 µM (inactive)	> 100 µM (inactive)	67.9 µM (inactive)	> 100 µM (inactive)	> 100 µM	36.7 µM (inactive)	> 100 µM (inactive)	> 100 µM (inactive)	66.2 µM (inactive)	> 100 µM (inactive)	99.8 µM (inactive)	> 100 µM (inactive)	> 100 µM (inactive)	> 100 µM (inactive)		
O=CN/C=C/c1ccccc1	> 51.2 µM (inactive)		> 100 µM (inactive)	> 100 µM (inactive)	> 100 µM (inactive)	> 100 µM (inactive)	> 100 µM (inactive)	> 100 µM	> 100 µM (inactive)	> 100 µM (inactive)	> 100 µM (inactive)	> 100 µM (inactive)	> 100 µM (inactive)	> 100 µM (inactive)	> 94.8 µM (inactive)	> 100 µM (inactive)	> 87.3 µM (inactive)	> 100 µM (inactive)	> 100 µM (inactive)
O=c1nc(-c2ccccc2)c2c3c(cccn13)CCC2	> 100 µM (inactive)		> 100 µM (inactive)	> 100 µM (inactive)	> 100 µM (inactive)	> 100 µM (inactive)	54 µM (inactive)	> 100 µM	21.8 µM (inactive)		> 100 µM (inactive)	> 100 µM (inactive)	> 100 µM (inactive)	> 100 µM (inactive)	> 100 µM (inactive)	> 100 µM (inactive)	73.6 µM (inactive)	> 100 µM (inactive)	
Cc1cc(Cl)nc(Nc2nc3ccccc3[nH]2)n1	> 100 µM (inactive)	> 100 µM (inactive)	> 100 µM (inactive)		> 100 µM (inactive)	> 100 µM (inactive)	> 100 µM (inactive)	> 100 µM	> 100 µM (inactive)	> 100 µM (inactive)	> 100 µM (inactive)	> 100 µM (inactive)	> 100 µM (inactive)	> 100 µM (inactive)	32.1 µM (inactive)	> 100 µM (inactive)	> 100 µM (inactive)	> 100 µM (inactive)	> 100 µM (inactive)
O=C(COc1ccc(OCC(=O)N2C(=O)CC(=O)N(c3ccccc3)C2=S)cc1)N1C(=O)CC(=O)N(c2ccccc2)C1=S	72.1 µM (inactive)	76 µM (inactive)	> 100 µM (inactive)	41.8 µM (inactive)	38.7 µM (inactive)		65.8 µM (inactive)	88.5 µM	> 100 µM (inactive)	56.9 µM (inactive)	> 100 µM (inactive)	56.6 µM (inactive)	43.4 µM (inactive)				61.4 µM (inactive)	> 100 µM (inactive)	55.7 µM (inactive)
COc1ccc(C(O)C(c2ccc(OCc3ccccc3)cc2)c2ccc(OCc3ccccc3)cc2)cc1 (stereo unspecified)	> 100 µM (inactive)		> 100 µM (inactive)		> 100 µM (inactive)	> 100 µM (inactive)	> 100 µM (inactive)	> 100 µM	> 100 µM (inactive)		> 100 µM (inactive)	> 100 µM (inactive)	> 100 µM (inactive)	> 100 µM (inactive)	> 100 µM (inactive)	> 100 µM (inactive)	> 100 µM (inactive)	> 100 µM (inactive)	
COc1ccc(NC(=O)/C(CC2=Nc3ccc([N+](=O)[O-])cc3NC2O)=N\NC(=O)C[N+](C)(C)C)c(OC)c1 (stereo unspecified)	94.8 µM (inactive)	> 100 µM (inactive)	> 100 µM (inactive)	> 100 µM (inactive)	80.7 µM (inactive)	26.5 µM (inactive)	> 100 µM (inactive)	45.9 µM	> 100 µM (inactive)	> 100 µM (inactive)		> 100 µM (inactive)	> 100 µM (inactive)	30.1 µM (inactive)	18.4 µM (inactive)	> 100 µM (inactive)	34.3 µM (inactive)	61 µM (inactive)	47.3 µM (inactive)
CCC(C)CN1C(=O)NC(C)(Cc2ccccc2)C1=O (stereo unspecified)	> 100 µM (inactive)		> 100 µM (inactive)			> 100 µM (inactive)	> 100 µM (inactive)		> 100 µM (inactive)		> 100 µM (inactive)	> 100 µM (inactive)	> 100 µM (inactive)	> 100 µM (inactive)	> 100 µM (inactive)	> 100 µM (inactive)	> 100 µM (inactive)	> 100 µM (inactive)	
CC1=NN(C(=O)c2ccc([N+](=O)[O-])cc2)C(=O)C1/N=N/c1ccccc1C(=O)O (stereo unspecified)	> 100 µM (inactive)		> 100 µM (inactive)	> 100 µM (inactive)	> 100 µM (inactive)	> 100 µM (inactive)	32.1 µM (inactive)		51.2 µM (inactive)		> 100 µM (inactive)	> 100 µM (inactive)	> 100 µM (inactive)	> 100 µM (inactive)	> 10 µM (inactive)	90.2 µM (inactive)	> 100 µM (inactive)	> 100 µM (inactive)	
O=C1N/N=C\c2ccc(cc2)OCc2cccc(n2)COc2ccc(cc2)/C=N\NC1=O	> 25 µM (inactive)	> 25 µM (inactive)	> 25 µM (inactive)	> 25 µM (inactive)	> 25 µM (inactive)	> 25 µM (inactive)	> 25 µM (inactive)	> 25 µM	14.6 µM (inactive)	> 25 µM (inactive)	> 25 µM (inactive)	> 25 µM (inactive)	> 25 µM (inactive)	> 25 µM (inactive)	> 25 µM (inactive)	> 25 µM (inactive)	> 25 µM (inactive)	> 25 µM (inactive)	> 25 µM (inactive)
CC1(C)C(=O)C(O)=CC2C1=CCC1C2(C)C(=O)CC2(C)C(C(C)(O)C(=O)CC(O)C(C)(C)O)C(O)CC12C (stereo unspecified)	3.57 µM (inactive)		25.2 µM (inactive)	17.1 µM (inactive)	2.64 µM (inactive)	2.57 µM (inactive)	2.86 µM (inactive)	3.18 µM	0.989 µM (active)		3.54 µM (inactive)	4.67 µM (inactive)	2.61 µM (inactive)	12.6 µM (inactive)	4 µM (inactive)	3.17 µM (inactive)	2.02 µM (inactive)	4.98 µM (inactive)	
COC(=O)[C@H](CCSC)NC(=O)N[C@H](C)c1ccccc1	> 100 µM (inactive)	> 100 µM (inactive)	> 100 µM (inactive)	> 100 µM (inactive)	> 100 µM (inactive)	> 100 µM (inactive)	> 100 µM (inactive)	> 100 µM	> 100 µM (inactive)	> 100 µM (inactive)	24.9 µM (inactive)	> 100 µM (inactive)	> 100 µM (inactive)	> 100 µM (inactive)	> 100 µM (inactive)	> 100 µM (inactive)	> 100 µM (inactive)	> 100 µM (inactive)	> 100 µM (inactive)
C=CC(Cl)(CBr)CCC(Br)=C(C)C (stereo unspecified)	15.8 µM (inactive)	20.4 µM (inactive)	26.8 µM (inactive)	> 100 µM (inactive)	12.1 µM (inactive)	21.4 µM (inactive)	44.8 µM (inactive)	10.4 µM	41.5 µM (inactive)	21.3 µM (inactive)	17.6 µM (inactive)	35.9 µM (inactive)	16.6 µM (inactive)	24.9 µM (inactive)	21.7 µM (inactive)		18.8 µM (inactive)	16.9 µM (inactive)	33.3 µM (inactive)
Cc1cccc(C(C)(C)C)c1NC(=O)CC1C(=O)Nc2ccccc2[S+]1[O-] (stereo unspecified)	36.7 µM (inactive)		> 100 µM (inactive)	20.3 µM (inactive)		75.7 µM (inactive)	69.3 µM (inactive)	49.2 µM	54.2 µM (inactive)		54 µM (inactive)	62.8 µM (inactive)	49.3 µM (inactive)	97.1 µM (inactive)	24.9 µM (inactive)	20.9 µM (inactive)	41.6 µM (inactive)	55.8 µM (inactive)	
CCCCSC(=CC(=O)c1cccc(C(=O)C=C(SCCCC)SCCCC)n1)SCCCC	> 100 µM (inactive)		> 100 µM (inactive)	> 100 µM (inactive)	> 100 µM (inactive)	> 100 µM (inactive)	> 100 µM (inactive)	> 100 µM	88.9 µM (inactive)		> 100 µM (inactive)	> 100 µM (inactive)	> 100 µM (inactive)	> 100 µM (inactive)	> 100 µM (inactive)	> 100 µM (inactive)	> 100 µM (inactive)	> 100 µM (inactive)	
CC(C)(C)OC(=O)CN1C(=O)CC1CC(=O)c1ccccc1 (stereo unspecified)	3.58 µM (inactive)	18.9 µM (inactive)	17.5 µM (inactive)	4.39 µM (inactive)	18.3 µM (inactive)	19.4 µM (inactive)	25.1 µM (inactive)	18.2 µM		17.2 µM (inactive)	17.3 µM (inactive)	26.9 µM (inactive)	16.8 µM (inactive)	17.3 µM (inactive)	2.89 µM (inactive)	20 µM (inactive)	17.2 µM (inactive)	23.2 µM (inactive)	17.9 µM (inactive)
